Tested on: heart failure patients
Assay: Effect of the combination on the mortality of heart failure patients
Assay type: in vivo, human
Experimental: Effect of the Combination on the Mortality of Heart Failure Patients
A 6-hour infusion of levosimendan using a bolus of 6, 12 or 24 μg/kg and subsequent infusion of 0.1, 0.2 or 0.4 μg/kg/min was given to heart failure patients with or without concomitant use of a beta-blocker. The 72-hour, 14-day and 180 day mortality was measured. It can be seen that the combination provided synergistic reduction in the mortality of the heart failure patients.

[1] = LS 6 + 0.1 (bolus 6 μg/kg, infusion 0.1 μg/kg/min, 6-hour), did not receive beta-blocker, N = 60
[2] = LS 6 + 0.1 (bolus 6 μg/kg, infusion 0.1 μg/kg/min, 6-hour), received beta-blocker, N = 43
[3] = LS 12 + 0.2 (bolus 12 μg/kg, infusion 0.2 μg/kg/min, 6-hour), did not receive beta-blocker, N = 62
[4] = LS 12 + 0.2 (bolus 12 μg/kg, infusion 0.2 μg/kg/min, 6-hour), received beta-blocker, N = 38
[5] = LS 24 + 0.2 (bolus 24 μg/kg, infusion 0.2 μg/kg/min, 6-hour), did not receive beta-blocker, N = 67
[6] = LS 24 + 0.2 (bolus 24 μg/kg, infusion 0.2 μg/kg/min, 6-hour), received beta-blocker, N = 32
[7] = LS 24 + 0.4 (bolus 24 μg/kg, infusion 0.4 μg/kg/min, 6-hour), did not receive beta-blocker, N = 57
[8] = LS 24 + 0.4 (bolus 24 μg/kg, infusion 0.4 μg/kg/min, 6-hour), received beta-blocker, N = 42

CC1CC(=O)NN=C1c1ccc(NN=C(C#N)C#N)cc1 (single isomer, unassigned; (-)) [LS, (−)-enantiomer of [[4-(1,4,5,6-tetrahydro-4-methyl-6-oxo-3-pyridazinyl)phenyl]hydrazono]propanedinitrile]
14-day mortality, % [1]: 15.0% | 72-hour mortality, % [1]: 8.3% | 180-day mortality, % [1]: 50.0% | 14-day mortality, % [2]: 9.3% | 72-hour mortality, % [2]: 2.3% | 180-day mortality, % [2]: 30.2% | 14-day mortality, % [3]: 8.1% | 72-hour mortality, % [3]: 1.6% | 180-day mortality, % [3]: 40.3% | 14-day mortality, % [4]: 10.5% | 72-hour mortality, % [4]: 5.3% | 180-day mortality, % [4]: 26.3% | 14-day mortality, % [5]: 14.9% | 72-hour mortality, % [5]: 7.5% | 180-day mortality, % [5]: 46.3% | 14-day mortality, % [6]: 9.4% | 72-hour mortality, % [6]: 0.0% | 180-day mortality, % [6]: 37.5% | 14-day mortality, % [7]: 15.8% | 72-hour mortality, % [7]: 8.8% | 180-day mortality, % [7]: 45.6% | 14-day mortality, % [8]: 4.8% | 72-hour mortality, % [8]: 0.0% | 180-day mortality, % [8]: 23.8%

Source: US6949548B2, “Combination therapy for the treatment of heart failure” (Orion Corporation, priority 2001, dated 2005)
